These results are taken from PMC6272399, “Anti-Proliferative Effect and Induction of Apoptosis in Androgen-Independent Human Prostate Cancer Cells by 1,5-Bis(2-hydroxyphenyl)-1,4-pentadiene-3-one” (Molecules, 2015).

The assay deals with PC-3 cells. Put plainly: BrdU cell proliferation assay, PC-3. The conditions noted are these: PC-3, BrdU. The assay is classed as cell-based, human. Here is the method: The anti-proliferative effects of compound on treated cells, was measured using the BrdU cell proliferation assay kit (Roche Applied Science Diagnostics, Indianapolis, IN, USA) according to the manufacturer’s protocol. The assay was based on incorporation of BrdU during DNA synthesis in proliferating cells. Cells were plated at a concentration of 10^4 cells/mL in a 96-well microtiter plate and incubated overnight. The cells were treated with compounds and curcumin (concentrations ranging from 1.56 µM–100 µM) as positive control for 24, 48 and 72 h respectively. Then, BrdU labeling solution (5 µL, diluted by 1/100 in culture media) was added to each well and incubated for 2 h at 37 °C. The media was replaced with fix/denaturing solution (100 µL) and incubated for 30 min at room temperature. Then, the fix/denaturing solution was removed by tapping off and followed by addition of 50 µL anti-BrdU antibody (50 µL, diluted by 1/100 in dilution buffer) to each well and further incubated for another 90 min at room temperature. Next, the cells were washed 3 times with wash buffer and substrate solution (50 µL) was added to each well. The plate was left for 10 min at room temperature in the dark and the absorbance was measured at a wavelength of 370 nm with a reference wavelength of 492 nm using a micro-plate ELISA reader (Bio-Rad). The percentage of BrdU incorporation was determined based on the ratio of absorbance of sample treated-cells to absorbance of control (untreated cells/DMSO only) multiplied by 100.

Take `O=C(C=Cc1ccccc1O)C=Cc1ccccc1O` [MS17, 1,5-bis(2-hydroxyphenyl)-1,4-pentadiene-3-one]: the “concentration from which anti-proliferative activity is significant” value runs as follows: (24 h) 6.3 µM; (48 h) 12.5 µM; (72 h) 12.5 µM.
